The values that follow come from US9995731B2, “Construction of mitochondrial UQCRB mutant expressing cells and utilization of the cells for UQCRB assay system thereof” (INDUSTRY-ACADEMIC COOPERATION FOUNDATION, YONSEI UNIVERSITY, priority 2014, dated 2018).

Holding throughout (type): cell-based, human
Test [1] relates to UQCRB mutant stable cell line MT1. The test can be described thus: Cell proliferation assay (MTT colorimetric), UQCRB mutant stable cell line MT1. The note with it: MT1 cells, terpestacin 50 μM, with or without terpestacin for 3 days. The source says: (§1) FIG. 4A-4F Pro-angiogenic activity of UQCRB mutant stable cell lines and its regulation by UQCRB inhibitors. (4A) Pro-angiogenic activity of a UQCRB mutant through conditioned media (CM)-induced invasion of HUVECs. (4B) Effect of a UQCRB mutation on cell migration; black lines indicate the edge of the gap. (4C) Optical density levels of the colony formation assay by using UQCRB mutant stable cell lines or controls. (4D, 4E) Growth of the UQCRB mutant stable cell lines regulated by the UQCRB inhibitors terpestacin (T) and A1938 (A). Cells were treated with terpestacin (50 μM) or A1938 (10 μM) in a time-dependent manner. Cell growth was measured by the MTT colorimetric assay. (4F) Suppression of elevated mROS by terpestacin in UQCRB MT1 cells. mROS were measured using MitoSOX™. Terpestacin (20 μM) was applied to UQCRB MT1 cells for 1 h; scale bars indicate 20 μm. […]
(§2) Control and mutant stable cell lines were seeded onto 96-well plates and incubated for 24-72 h. Proliferation of the cells was measured using a 3-(4,5-dimethylthiazol-2-yl)-2,5-diphenyltetrazolium bromide (MTT; Sigma-Aldrich, Saint Louis, Mo.) colorimetric assay.
(§3) Since UQCRB is a molecular target of the natural compound terpestacin [6], we examined the effect of terpestacin on UQCRB mutant stable cell lines. To test whether terpestacin affects MT1 and MT2, cell growth was measured with or without terpestacin for 3 days. […]

In test [2] the test system is UQCRB mutant stable cell line MT2. The test can be described thus: Cell proliferation assay (MTT colorimetric), UQCRB mutant stable cell line MT2. The note with it: MT2 cells, terpestacin 50 μM, with or without terpestacin for 3 days.
Description: as §1, §2, §3

The subject of another test is Control (HEK293) cells. The test can be described thus: Cell proliferation assay (MTT colorimetric), control cells. The note with it: terpestacin 50 μM, 3 days.
Description: as §1, §2, §3

Another test concerns UQCRB MT1 cells. Briefly: Measurement of mROS levels with MitoSOX in UQCRB MT1 cells. The note with it: terpestacin 20 μM for 1 h.
Description: as §1, with “MitoSOX™.” for “MitoSOX™. Terpestacin (20 μM) was applied to UQCRB MT1 cells for 1 h; scale bars indicate 20 μm.”
mROS levels were assessed by the red fluorescence mitochondrial superoxide indicator MitoSOX™ (Invitrogen, Grand Island, N.Y.). […] Results of MitoSOX™ and Hoechst staining were analyzed under a confocal microscope (Zeiss LSM 710; Carl Zeiss Microlmaging, Thornwood, N.Y.), and the fluorescence intensity of MitoSOX™ was measured by ImageJ.
as §3

With `C/C1=C\C[C@]2(C)C(=O)C(O)=C([C@H](C)CO)[C@H]2C/C=C(\C)[C@@H](O)CC/C(C)=C/CC1` [terpestacin], the “effect on proliferation (cell growth, MTT)” value is “remarkably inhibited proliferation” in test [1], “remarkably inhibited proliferation” in test [2] and “did not affect the proliferation” in the test on Control (HEK293) cells. The “effect on elevated mROS (MitoSOX fluorescence)” value with UQCRB MT1 cells is listed as “attenuated mROS induction in MT1 to a basal level”.
